{
  "source": "patent US20250361248A1",
  "about": "“PROTAC COMPOUND WITH CYCLOPHILIN A DEGRADATION ACTIVITY, PREPARATION METHOD THEREFOR, AND USE THEREOF” (priority 2022, published 2025)",
  "key": {"[1]": {"system": "IBV-/Guangxi-Jiangzhou/1352/2018", "experiment": "IBV-induced pneumonia mouse model: lung index, lung pathology and pathological scores", "set-up": "species or system C57BL/6 mice", "conditions": "in vivo"}, "[2]": {"target": "CypA (Mus musculus, UniProt P17742)", "sequence (P17742 whole entry)": "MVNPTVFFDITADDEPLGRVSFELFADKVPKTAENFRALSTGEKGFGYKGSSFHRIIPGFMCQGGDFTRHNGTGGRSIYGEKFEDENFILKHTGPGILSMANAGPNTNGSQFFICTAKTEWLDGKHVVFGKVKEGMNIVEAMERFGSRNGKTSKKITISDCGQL", "assay_type": "in vivo, C57BL/6 mice", "conditions": "10 mg/kg of body weight/day from 24 h after IBV infection, 7 days after infection"}, "[3]": {"target": "T1, CypA (Homo sapiens, UniProt P62937)", "T1 construct": "A549 cells in the logarithmic phase were collected; endogenous in cells; host or cells: A549", "T1 sequence (P62937 whole entry)": "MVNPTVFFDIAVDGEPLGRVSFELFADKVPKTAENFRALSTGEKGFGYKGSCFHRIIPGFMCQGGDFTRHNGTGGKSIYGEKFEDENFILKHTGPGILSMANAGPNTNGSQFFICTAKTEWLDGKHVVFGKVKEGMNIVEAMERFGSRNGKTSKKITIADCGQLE", "experiment": "CypA degradation in A549 cells by Western Blot", "assay_type": "cell-based", "conditions": "A549 cell line, 12 hours", "method": "(§1) (1) A549 cells in the logarithmic phase were collected, the concentration of the cell suspension was adjusted, and 100 uL was added per well. The cells to be tested were plated to a density of 10^3-10^4 cells/well and incubated at 37° C. under 5% CO2 until the bottom of the wells was covered by a single layer of cells.\n(2) Different concentrations of the compound of Formula I were added: 0, 10, 10^2, 10^3, 10^4, and 10^5 nM/well, with 3 replicate wells set, and incubated at 37° C. under 5% CO2 for 12 hours.\n(1) The treated cells were scraped off from the culture medium, suspended thoroughly, and then collected by centrifugation at 300 g for 5 minutes. After washing with PBS once, the PBS was discarded. […]\n(3) The specific steps for Western Blot (WB) detection were as follows: • 1) An appropriate concentration of SDS-PAGE gel was prepared: the concentration of a separating gel of 10% and the concentration of a stacking gel of 5%. • 2) Sample preparation: protein samples were prepared according to experimental requirements, centrifuged, mixed well, and loaded into the loading wells of SDS-PAGE gel. The loading volume was adjusted appropriately according to the protein quantification results. • 3) Electrophoresis: the power was turned on, and the protein samples were run at 80 volts in the stacking gel. […]"}, "[4]": {"system": "rheumatoid arthritis", "experiment": "Rat rheumatoid arthritis model (Freund complete adjuvant)", "assay_type": "in vivo, Lewise rats", "conditions": "10 mg/kg tail vein three times/week", "method": "The BCG vaccine was inactivated in a water bath at 80° C. for 1 h, ground thoroughly with incomplete Freund adjuvant, and mixed well to prepare 15 mg/mL Freund complete adjuvant (FCA). Lewise rats were divided into 4 groups: blank group (PBS), untreated group (UT), treatment group 1 (compound), and treatment group 2 (MTX (methotrexate)), with 5 rats in each group and a body weight of […]. Except for the PBS group, rats were intradermally injected with 0.1 mL of FCA in the right hind paw. On day 14 after injection, rats in treatment group 1 (compound) were injected with the compound (10 mg/kg of body weight, dissolved in 100 μL of PBS) through the tail vein three times/week: rats in treatment group 2 (MTX (methotrexate)) were intraperitoneally injected with methotrexate (1.2 mg/kg of body weight) three times/week.\nThe circumference of the metatarsophalangeal joint was measured. The circumference of the ankle joint of the left hind paw (on the secondary lesion side) of all rats was measured once before modeling, before administration, and 3 weeks after administration, respectively, and the percentage of joint swelling was calculated.\nThe joint index was determined by joint swelling score before administration (Day 0) and 3 weeks after administration. Scoring was carried out based on the redness and swelling degree of the ankle and toe joints of the front and rear limbs of rats and the affected joint index, as follows: 0 for normal; 1 for the redness and swelling of one joint; 2 for the redness and swelling of two or more joints; 3 for severe redness and swelling of the paw below the ankle joint; 4 for the redness and swelling of the entire paw including the ankle joint and inability to bear weight. The limbs were scored separately; and the cumulative sum of the scores was the joint index.\n(1) On the day 21 of administration, rats were euthanized after blood collection. […]\n(2) Joint synovial proliferation and the degree of sub-synovial inflammation were observed under a light microscope, and synovial cell proliferation was scored."}, "[5]": {"system": "A549 cells", "experiment": "Effect on A549 cell activity by CCK-8 method", "assay_type": "cell-based", "conditions": "0 to 10^5 nM, 12 hours", "method": "as §1\n(2) Different concentrations of the compound of Formula (I) were added: 0, 10, 10^2, 10^3, 10^4, and 10^5 nM/well, with 3 replicate wells set, and incubated at 37° C. under 5% CO2 for 12 hours.\n• (1) 10 μL CCK8 reagent was added to the above cells in each well and reacted for 2 h. • (2) The incubation was terminated, and the culture medium in the wells was carefully aspirated. • (3) The absorbance of each well was measured using a microplate reader with a wavelength of 450 nm. • (4) The absorbance ratio between the experimental group and the control group was calculated as follows: Cell viability=(Absorbance of the experimental group−Blank control)÷(Absorbance of the control group−Blank control)×100%."}, "[6]": {"system": "IL-1β, IL-6, TNF-α, and IFN-γ", "set-up": "species or system C57BL/6 mice", "conditions": "mouse, in vivo, 10 mg/kg/day"}, "[7]": {"system": "A549 cells", "experiment": "Migration and infiltration of lung cancer cells, Transwell chambers", "assay_type": "cell-based", "method": "(1) A549 cells in the logarithmic phase were collected, the concentration of the cell suspension was adjusted, and 100 uL was added per well. The cells to be tested were plated to a density of 10^3 to 10^4 cells/well and incubated at 37° C. under 5% CO2 until the bottom of the wells was covered by a single layer of cells.\n(2) Different concentrations of the compound represented by Formula I were added: 0, 10, 10^2, 10^3, 10^4, and 10^5 nM/well, with 3 replicate wells set, and incubated at 37° C. under 5% CO2 for 12 hours.\nThe upper chamber of a 24-well cell culture insert ([…] pore size) was coated (no migration) or (invasive) with a matrix (1 mg/mL) and dried at 37° C. for 30 min.\n(3) A549/WT and A549/CypA-cells were trypsinized, washed, and suspended in serum-free DMEM after treatment with 20 ng/ml TGF-β for 48 h.\n(1) DMEM containing 10% fetal bovine serum was added to the lower chamber per approximately 5×10^4 cells inserted in the upper chamber.\n(2) After incubation for 6 h (migration) or 24 h (invasion), non-migrating or […] cells residing on the upper part of the insert membrane were removed with a cotton swab.\n(3) The cells that migrated to the underside of the membrane were fixed and stained with 2% crystal violet in ethanol.\n(4) The stained cells were observed and counted under a Japan Olympus CKX41 microscope."}},
  "data": [
    {"smiles": "Cc1ncsc1-c1ccc(CNC(=O)[C@@H]2C[C@@H](O[Si](C)(C)C(C)(C)C)CN2C(=O)[C@@H](NC(=O)COCCCCOCCCCOc2cccc(O)c2C(=O)NC(=O)NC2CCCCC2)C(C)(C)C)cc1", "note": "[Formula I]", "values": [
      {"measurement": "lung injury (lung index, pathology, pathological scores)", "setting": "[1]", "result": "significantly alleviate lung injury"},
      {"measurement": "expression of CypA in mouse lung tissue", "setting": "[2]", "result": "significantly reduce"},
      {"measurement": "DC50", "setting": "[3]; WB grayscale analysis, read-out: half-degradation concentration on CypA", "result": "< 100", "unit": "nM"},
      {"measurement": "degradation effect on CypA protein", "setting": "[3]; WB, 0 to 10^5 nM", "result": "could be clearly observed"},
      {"measurement": "joint index of the ankle joint", "setting": "[4]; 3 weeks after administration", "result": "reduce the joint index"},
      {"measurement": "joint swelling", "setting": "[4]; 3 weeks after administration", "result": "significantly relieve joint swelling"},
      {"measurement": "inflammation of the ankle joint (ankle pathological scores, HE)", "setting": "[4]; day 21 of administration", "result": "alleviate the inflammation"},
      {"measurement": "cell viability", "setting": "[5]", "result": "above 80%"},
      {"measurement": "expression of IFN-γ in the lung tissue", "setting": "[6]", "result": "significantly reduce"},
      {"measurement": "expression of IL-1β in the lung tissue", "setting": "[6]", "result": "significantly reduce"},
      {"measurement": "expression of IL-6 in the lung tissue", "setting": "[6]", "result": "significantly reduce"},
      {"measurement": "expression of TNF-α in the lung tissue", "setting": "[6]", "result": "significantly reduce"},
      {"measurement": "infiltration of lung cancer cells", "setting": "[7]; A549, Transwell with matrix, 24 h", "result": "significantly reduce"},
      {"measurement": "migration of lung cancer cells", "setting": "[7]; A549, Transwell, 6 h", "result": "significantly reduce"}
    ]}
  ]
}
